In the kinase profiling compilation of Christmann-Franck et al. (2016):

Experiments:
Assay in all cases: KINOMEscan competition binding
Conditions in all cases: compound 10.0 µM
[1] = test system: PIK3CA (human), P42336 [E542K]
AKT1 (human) = AKT1 (human) (UniProt P31749)
MAP2K7 (human) = MAP2K7 (human) (UniProt O14733)
CDK15 (human) = CDK15 (human) (UniProt Q96Q40)
MAP2K3 (human) = MAP2K3 (human) (UniProt P46734)
WEE2 (human) = WEE2 (human) (UniProt P0C1S8)
SRPK1 (human) = SRPK1 (human) (UniProt Q96SB4)
Sequence of SRPK1 (human) (Q96SB4 whole entry, looked up): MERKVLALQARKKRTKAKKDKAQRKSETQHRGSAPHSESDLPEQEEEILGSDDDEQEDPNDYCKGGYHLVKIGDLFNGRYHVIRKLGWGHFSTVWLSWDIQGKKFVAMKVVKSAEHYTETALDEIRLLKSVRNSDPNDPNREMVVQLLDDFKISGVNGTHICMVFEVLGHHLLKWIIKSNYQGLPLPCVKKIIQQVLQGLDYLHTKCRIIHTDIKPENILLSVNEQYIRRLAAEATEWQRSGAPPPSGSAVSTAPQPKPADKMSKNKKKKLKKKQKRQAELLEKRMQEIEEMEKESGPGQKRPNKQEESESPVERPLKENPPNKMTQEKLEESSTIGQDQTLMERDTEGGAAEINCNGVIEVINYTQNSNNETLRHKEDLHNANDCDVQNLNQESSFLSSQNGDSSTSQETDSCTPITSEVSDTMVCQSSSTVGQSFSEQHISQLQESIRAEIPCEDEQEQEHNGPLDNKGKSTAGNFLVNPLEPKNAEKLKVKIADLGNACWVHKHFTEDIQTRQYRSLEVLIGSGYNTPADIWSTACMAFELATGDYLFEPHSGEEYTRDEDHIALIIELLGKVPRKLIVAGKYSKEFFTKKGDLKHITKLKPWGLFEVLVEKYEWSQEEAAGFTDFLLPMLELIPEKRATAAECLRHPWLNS

PRKCQ (human) = PRKCQ (human) (UniProt Q04759)
GRK1 (human) = GRK1 (human) (UniProt Q15835)
RPS6KA5 KD2 (human) = RPS6KA5 KD2 (human) (UniProt O75582)
Sequence of RPS6KA5 KD2 (human) (O75582 whole entry, looked up): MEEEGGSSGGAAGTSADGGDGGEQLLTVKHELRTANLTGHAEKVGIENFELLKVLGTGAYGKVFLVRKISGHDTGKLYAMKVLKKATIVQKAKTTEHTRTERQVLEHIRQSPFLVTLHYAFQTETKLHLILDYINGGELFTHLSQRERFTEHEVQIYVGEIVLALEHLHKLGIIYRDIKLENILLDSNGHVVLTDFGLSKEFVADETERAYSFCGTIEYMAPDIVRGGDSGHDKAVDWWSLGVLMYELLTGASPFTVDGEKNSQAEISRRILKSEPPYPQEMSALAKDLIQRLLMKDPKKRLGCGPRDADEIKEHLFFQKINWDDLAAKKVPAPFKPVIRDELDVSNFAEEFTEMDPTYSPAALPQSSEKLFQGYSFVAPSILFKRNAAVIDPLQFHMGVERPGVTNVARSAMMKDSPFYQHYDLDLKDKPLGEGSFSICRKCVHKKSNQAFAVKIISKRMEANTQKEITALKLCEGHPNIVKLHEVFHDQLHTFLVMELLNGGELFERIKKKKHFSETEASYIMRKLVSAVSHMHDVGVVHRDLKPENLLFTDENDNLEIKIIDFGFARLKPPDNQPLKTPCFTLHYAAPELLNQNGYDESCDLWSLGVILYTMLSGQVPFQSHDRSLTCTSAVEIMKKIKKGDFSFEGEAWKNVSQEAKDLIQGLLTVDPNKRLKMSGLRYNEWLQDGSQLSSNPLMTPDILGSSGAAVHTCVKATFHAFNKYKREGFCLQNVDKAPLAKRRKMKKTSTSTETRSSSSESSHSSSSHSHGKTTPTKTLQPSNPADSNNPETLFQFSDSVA

CDC42BPB (human) = CDC42BPB (human) (UniProt Q9Y5S2)
EPHA1 (human) = EPHA1 (human) (UniProt P21709)
PHKG2 (human) = PHKG2 (human) (UniProt P15735)
RAF1 (human) = RAF1 (human) (UniProt P04049)
PIK3C2G (human) = PIK3C2G (human) (UniProt O75747)
SRPK3 (human) = SRPK3 (human) (UniProt Q9UPE1)
PIK3CA (human) = PIK3CA (human) (UniProt P42336)
MAP2K6 (human) = MAP2K6 (human) (UniProt P52564)
RIPK2 (human) = RIPK2 (human) (UniProt O43353)
EPHB6 (human) = EPHB6 (human) (UniProt O15197)
MUSK (human) = MUSK (human) (UniProt O15146)
ULK3 (human) = ULK3 (human) (UniProt Q6PHR2)
MAPK8 (human) = MAPK8 (human) (UniProt P45983)
MAPK14 (human) = MAPK14 (human) (UniProt Q16539)
MAPK11 (human) = MAPK11 (human) (UniProt Q15759)
MAP3K1 (human) = MAP3K1 (human) (UniProt Q13233)
MAPK15 (human) = MAPK15 (human) (UniProt Q8TD08)
ACVR1B (human) = ACVR1B (human) (UniProt P36896)
MST1R (human) = MST1R (human) (UniProt Q04912)
Sequence of MST1R (human) (Q04912 whole entry, looked up): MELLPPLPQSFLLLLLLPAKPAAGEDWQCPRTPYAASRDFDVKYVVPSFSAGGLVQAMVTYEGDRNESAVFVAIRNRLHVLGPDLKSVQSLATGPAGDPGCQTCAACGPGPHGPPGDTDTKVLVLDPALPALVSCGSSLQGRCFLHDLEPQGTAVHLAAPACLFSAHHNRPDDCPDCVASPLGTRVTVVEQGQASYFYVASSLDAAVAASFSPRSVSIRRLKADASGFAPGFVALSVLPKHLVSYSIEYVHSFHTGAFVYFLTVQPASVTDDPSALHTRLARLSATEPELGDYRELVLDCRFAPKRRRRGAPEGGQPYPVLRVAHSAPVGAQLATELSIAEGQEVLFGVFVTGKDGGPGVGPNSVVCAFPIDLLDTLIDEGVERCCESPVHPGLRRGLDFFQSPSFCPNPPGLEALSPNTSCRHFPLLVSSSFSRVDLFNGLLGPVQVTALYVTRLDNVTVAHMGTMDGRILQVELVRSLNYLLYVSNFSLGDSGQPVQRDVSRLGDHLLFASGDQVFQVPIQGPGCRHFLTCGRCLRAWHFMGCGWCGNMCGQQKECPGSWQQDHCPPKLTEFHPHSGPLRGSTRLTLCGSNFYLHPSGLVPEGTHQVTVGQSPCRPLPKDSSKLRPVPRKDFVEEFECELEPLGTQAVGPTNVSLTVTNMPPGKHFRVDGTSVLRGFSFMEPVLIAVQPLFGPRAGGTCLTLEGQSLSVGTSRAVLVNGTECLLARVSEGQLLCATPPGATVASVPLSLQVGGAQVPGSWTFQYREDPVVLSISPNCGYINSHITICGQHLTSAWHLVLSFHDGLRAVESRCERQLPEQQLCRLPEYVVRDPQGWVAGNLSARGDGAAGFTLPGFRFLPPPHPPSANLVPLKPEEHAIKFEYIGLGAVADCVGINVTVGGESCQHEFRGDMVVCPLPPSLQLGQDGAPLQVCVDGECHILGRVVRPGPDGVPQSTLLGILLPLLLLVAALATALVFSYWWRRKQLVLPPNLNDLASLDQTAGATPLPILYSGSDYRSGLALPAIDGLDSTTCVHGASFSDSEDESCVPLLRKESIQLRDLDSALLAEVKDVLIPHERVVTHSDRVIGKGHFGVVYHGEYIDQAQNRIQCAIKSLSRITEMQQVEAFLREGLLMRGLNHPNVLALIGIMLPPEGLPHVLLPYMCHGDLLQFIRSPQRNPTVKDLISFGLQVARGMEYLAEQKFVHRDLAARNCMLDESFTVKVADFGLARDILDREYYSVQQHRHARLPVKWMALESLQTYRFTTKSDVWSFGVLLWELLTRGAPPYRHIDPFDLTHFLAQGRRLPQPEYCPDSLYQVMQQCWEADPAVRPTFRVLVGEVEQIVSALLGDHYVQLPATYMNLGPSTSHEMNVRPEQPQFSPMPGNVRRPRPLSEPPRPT

CDK13 (human) = CDK13 (human) (UniProt Q14004)
PDPK1 (human) = PDPK1 (human) (UniProt O15530)
DYRK1B (human) = DYRK1B (human) (UniProt Q9Y463)
CDK11B (human) = CDK11B (human) (UniProt P21127)
AKT3 (human) = AKT3 (human) (UniProt Q9Y243)
SLK (human) = SLK (human) (UniProt Q9H2G2)
PKN1 (human) = PKN1 (human) (UniProt Q16512)
Sequence of PKN1 (human) (Q16512 whole entry, looked up): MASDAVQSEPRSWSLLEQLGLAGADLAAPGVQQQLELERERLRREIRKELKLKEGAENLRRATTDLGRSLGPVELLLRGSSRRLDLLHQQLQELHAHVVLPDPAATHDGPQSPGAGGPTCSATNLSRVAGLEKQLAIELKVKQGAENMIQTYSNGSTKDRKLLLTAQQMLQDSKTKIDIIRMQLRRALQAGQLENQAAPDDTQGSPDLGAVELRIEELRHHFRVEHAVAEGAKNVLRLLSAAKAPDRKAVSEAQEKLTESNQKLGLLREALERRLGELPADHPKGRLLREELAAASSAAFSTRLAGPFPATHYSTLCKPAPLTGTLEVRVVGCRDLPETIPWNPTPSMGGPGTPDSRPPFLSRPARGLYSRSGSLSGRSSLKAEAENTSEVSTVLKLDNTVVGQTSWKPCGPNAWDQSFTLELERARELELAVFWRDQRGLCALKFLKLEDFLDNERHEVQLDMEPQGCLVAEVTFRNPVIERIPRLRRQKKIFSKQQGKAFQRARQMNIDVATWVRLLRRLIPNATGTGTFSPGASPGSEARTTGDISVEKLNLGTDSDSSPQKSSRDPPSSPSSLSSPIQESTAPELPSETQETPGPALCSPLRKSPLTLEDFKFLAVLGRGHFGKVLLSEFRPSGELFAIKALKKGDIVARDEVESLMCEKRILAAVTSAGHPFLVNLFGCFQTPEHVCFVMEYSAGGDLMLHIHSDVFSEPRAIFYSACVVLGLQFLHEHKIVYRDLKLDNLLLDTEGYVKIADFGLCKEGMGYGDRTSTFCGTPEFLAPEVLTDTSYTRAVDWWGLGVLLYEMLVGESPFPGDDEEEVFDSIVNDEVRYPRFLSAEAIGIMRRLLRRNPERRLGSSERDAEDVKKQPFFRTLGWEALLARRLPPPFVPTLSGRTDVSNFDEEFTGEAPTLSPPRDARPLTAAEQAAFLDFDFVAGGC

OXSR1 (human) = OXSR1 (human) (UniProt O95747)
PRKX (human) = PRKX (human) (UniProt P51817)
Sequence of PRKX (human) (P51817 whole entry, looked up): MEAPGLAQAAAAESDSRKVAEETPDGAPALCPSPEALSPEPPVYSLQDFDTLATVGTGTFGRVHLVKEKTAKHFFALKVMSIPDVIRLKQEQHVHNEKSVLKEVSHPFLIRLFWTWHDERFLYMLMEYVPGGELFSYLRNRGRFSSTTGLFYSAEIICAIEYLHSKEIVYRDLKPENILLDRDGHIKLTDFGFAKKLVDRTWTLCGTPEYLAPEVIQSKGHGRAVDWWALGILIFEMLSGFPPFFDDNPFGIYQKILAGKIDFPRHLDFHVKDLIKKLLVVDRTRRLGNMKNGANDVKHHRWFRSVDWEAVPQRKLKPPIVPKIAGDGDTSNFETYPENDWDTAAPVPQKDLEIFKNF

STK25 (human) = STK25 (human) (UniProt O00506)
RPS6KA3 KD1 (human) = RPS6KA3 KD1 (human) (UniProt P51812)

Sequence of MAP2K7 (human) (O14733 whole entry, looked up): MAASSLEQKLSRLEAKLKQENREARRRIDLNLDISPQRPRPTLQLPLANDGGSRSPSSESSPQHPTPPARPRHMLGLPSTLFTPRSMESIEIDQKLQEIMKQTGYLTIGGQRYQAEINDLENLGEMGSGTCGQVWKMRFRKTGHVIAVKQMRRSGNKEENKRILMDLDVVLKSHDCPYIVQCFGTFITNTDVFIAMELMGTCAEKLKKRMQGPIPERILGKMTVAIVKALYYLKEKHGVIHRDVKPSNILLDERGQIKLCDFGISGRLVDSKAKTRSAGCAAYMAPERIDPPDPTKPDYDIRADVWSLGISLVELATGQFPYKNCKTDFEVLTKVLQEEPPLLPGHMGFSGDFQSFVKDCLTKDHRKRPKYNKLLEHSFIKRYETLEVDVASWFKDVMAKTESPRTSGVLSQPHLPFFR
Sequence of AKT1 (human) (P31749 whole entry, looked up): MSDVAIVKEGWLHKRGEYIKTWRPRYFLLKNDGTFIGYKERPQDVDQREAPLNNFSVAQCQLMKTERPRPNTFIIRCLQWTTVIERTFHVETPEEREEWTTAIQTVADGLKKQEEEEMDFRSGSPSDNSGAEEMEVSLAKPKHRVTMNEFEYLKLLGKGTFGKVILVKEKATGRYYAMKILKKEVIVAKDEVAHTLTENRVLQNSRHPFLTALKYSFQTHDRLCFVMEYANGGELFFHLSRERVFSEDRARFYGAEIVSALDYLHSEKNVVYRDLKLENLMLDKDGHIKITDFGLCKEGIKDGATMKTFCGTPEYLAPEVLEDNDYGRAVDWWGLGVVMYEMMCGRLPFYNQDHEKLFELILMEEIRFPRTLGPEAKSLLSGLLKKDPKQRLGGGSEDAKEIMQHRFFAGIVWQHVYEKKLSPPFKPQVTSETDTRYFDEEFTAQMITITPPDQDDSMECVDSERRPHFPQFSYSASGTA

Row | SMILES | kinase still bound, per cent of control [1] [%] | kinase still bound, per cent of control (AKT1 (human)) [%] | kinase still bound, per cent of control (CDK15 (human)) [%] | kinase still bound, per cent of control (WEE2 (human)) [%] | kinase still bound, per cent of control (SRPK1 (human)) [%] | kinase still bound, per cent of control (PRKCQ (human)) [%] | kinase still bound, per cent of control (GRK1 (human)) [%] | kinase still bound, per cent of control (RPS6KA5 KD2 (human)) [%] | kinase still bound, per cent of control (CDC42BPB (human)) [%] | kinase still bound, per cent of control (EPHA1 (human)) [%] | kinase still bound, per cent of control (PHKG2 (human)) [%] | kinase still bound, per cent of control (RAF1 (human)) [%] | kinase still bound, per cent of control (PIK3C2G (human)) [%] | kinase still bound, per cent of control (SRPK3 (human)) [%] | kinase still bound, per cent of control (PIK3CA (human)) [%] | kinase still bound, per cent of control (MAP2K6 (human)) [%] | kinase still bound, per cent of control (RIPK2 (human)) [%] | kinase still bound, per cent of control (EPHB6 (human)) [%] | kinase still bound, per cent of control (MUSK (human)) [%] | kinase still bound, per cent of control (ULK3 (human)) [%] | also measured
1 | N#C/C(=C1/Nc2ccccc2S1)c1ccnc(NCCc2cccnc2)n1 | 100 | 100 | 86 | 100 | 70 | 100 | 100 | 72 | 81 | 100 | 78 | 100 | 8.8 | 23 | 100 | 64 | 81 | 3.2 | 100 | 12 | kinase still bound, per cent of control (MAP2K7 (human)): 100%; kinase still bound, per cent of control (MAP2K3 (human)): 33%; kinase still bound, per cent of control (MAPK8 (human)): 0%; kinase still bound, per cent of control (MAPK14 (human)): 57%; kinase still bound, per cent of control (MAPK11 (human)): 85%; kinase still bound, per cent of control (MAP3K1 (human)): 65%; kinase still bound, per cent of control (MAPK15 (human)): 73%; kinase still bound, per cent of control (ACVR1B (human)): 84%; kinase still bound, per cent of control (MST1R (human)): 100%; kinase still bound, per cent of control (CDK13 (human)): 61%; kinase still bound, per cent of control (PDPK1 (human)): 100%; kinase still bound, per cent of control (DYRK1B (human)): 23%; kinase still bound, per cent of control (CDK11B (human)): 96%; kinase still bound, per cent of control (AKT3 (human)): 100%; kinase still bound, per cent of control (SLK (human)): 100%; kinase still bound, per cent of control (PKN1 (human)): 95%; kinase still bound, per cent of control (OXSR1 (human)): 62%; kinase still bound, per cent of control (PRKX (human)): 81%; kinase still bound, per cent of control (STK25 (human)): 60%
2 | COc1cc2c(Nc3ccc(NC(=O)c4ccccc4)cc3)ncnc2cc1OCCCN1CCOCC1 | 100 | 100 | 68 | 100 | 100 | 100 | 100 | 100 | 100 | 100 | 76 | 100 | 14 | 100 | 100 | 86 | 2.8 | 2 | 100 | 7.3 | kinase still bound, per cent of control (MAP2K7 (human)): 100%; kinase still bound, per cent of control (MAP2K3 (human)): 100%; kinase still bound, per cent of control (MAPK8 (human)): 67%; kinase still bound, per cent of control (MAPK14 (human)): 100%; kinase still bound, per cent of control (MAPK11 (human)): 84%; kinase still bound, per cent of control (MAP3K1 (human)): 92%; kinase still bound, per cent of control (MAPK15 (human)): 100%; kinase still bound, per cent of control (ACVR1B (human)): 100%; kinase still bound, per cent of control (MST1R (human)): 3.9%; kinase still bound, per cent of control (CDK13 (human)): 100%; kinase still bound, per cent of control (PDPK1 (human)): 100%; kinase still bound, per cent of control (DYRK1B (human)): 96%; kinase still bound, per cent of control (CDK11B (human)): 16%; kinase still bound, per cent of control (AKT3 (human)): 100%; kinase still bound, per cent of control (SLK (human)): 0.95%; kinase still bound, per cent of control (PKN1 (human)): 100%; kinase still bound, per cent of control (OXSR1 (human)): 100%; kinase still bound, per cent of control (PRKX (human)): 81%; kinase still bound, per cent of control (STK25 (human)): 63%
3 | Cc1cn(-c2cc(C(=O)Nc3ccc(C)c(NC(=O)c4ccno4)c3)cc(C(F)(F)F)c2)cn1 | 100 | 100 | 100 | 100 | 100 | 100 | 100 | 100 | 100 | 100 | 100 | 6 | 100 | 100 | 100 | 100 | 100 | 100 | 100 | 100 | kinase still bound, per cent of control (MAP2K3 (human)): 100%; kinase still bound, per cent of control (RPS6KA3 KD1 (human)): 100%; kinase still bound, per cent of control (MAPK8 (human)): 100%; kinase still bound, per cent of control (MAPK14 (human)): 0.3%; kinase still bound, per cent of control (MAPK11 (human)): 0%; kinase still bound, per cent of control (MAP3K1 (human)): 100%; kinase still bound, per cent of control (MAPK15 (human)): 100%; kinase still bound, per cent of control (ACVR1B (human)): 100%; kinase still bound, per cent of control (MST1R (human)): 100%; kinase still bound, per cent of control (PDPK1 (human)): 100%; kinase still bound, per cent of control (DYRK1B (human)): 100%; kinase still bound, per cent of control (CDK11B (human)): 100%; kinase still bound, per cent of control (AKT3 (human)): 100%; kinase still bound, per cent of control (SLK (human)): 100%; kinase still bound, per cent of control (PKN1 (human)): 100%; kinase still bound, per cent of control (OXSR1 (human)): 100%; kinase still bound, per cent of control (PRKX (human)): 100%; kinase still bound, per cent of control (STK25 (human)): 100%
4 | CCN(CCO)CCCOc1ccc2c(Nc3cc(CC(=O)Nc4cccc(F)c4)[nH]n3)ncnc2c1 | 100 | 96 | 88 | 100 | 100 | 100 | 100 | 100 | 100 | 100 | 81 | 100 | 21 | 100 | 100 | 99 | 17 | 0.8 | 3.3 | 69 | kinase still bound, per cent of control (MAP2K7 (human)): 91%; kinase still bound, per cent of control (RPS6KA3 KD1 (human)): 80%; kinase still bound, per cent of control (MAPK8 (human)): 59%; kinase still bound, per cent of control (MAPK14 (human)): 100%; kinase still bound, per cent of control (MAPK11 (human)): 100%; kinase still bound, per cent of control (MAPK15 (human)): 100%; kinase still bound, per cent of control (ACVR1B (human)): 88%; kinase still bound, per cent of control (MST1R (human)): 25%; kinase still bound, per cent of control (CDK13 (human)): 66%; kinase still bound, per cent of control (PDPK1 (human)): 100%; kinase still bound, per cent of control (DYRK1B (human)): 86%; kinase still bound, per cent of control (CDK11B (human)): 6.5%; kinase still bound, per cent of control (AKT3 (human)): 88%; kinase still bound, per cent of control (SLK (human)): 64%; kinase still bound, per cent of control (PKN1 (human)): 90%; kinase still bound, per cent of control (OXSR1 (human)): 100%; kinase still bound, per cent of control (PRKX (human)): 66%; kinase still bound, per cent of control (STK25 (human)): 66%
